Experiments:
[1] = tested on: human neonatal dermal fibroblasts; assay: Type I atelocollagen production after pepsin treatment, by type I human collagen ELISA; assay type: cell-based; settings: for promotion of type I collagen production compared to the negative control (Bonferroni/Dunn test): 0.1 μM, atelocollagen ELISA
Description: (§1) Commercially available human neonatal dermal fibroblasts (Cryo NHDF-Neo, manufactured by Sanko Junyaku Co., Ltd.) were used. The cells were inoculated in a commercially available 24-well plate to have 2×10^5 cells per well. The cells were then cultured for four hours in a commercially available medium for cell culture (D-MEM (1 g/L glucose), manufactured by Wako Pure Chemical Industries, Ltd.) to which 10% bovine fetal serum was supplemented (herein below, referred to as a “standard medium”) in a 5% CO2 and saturated water vapor atmosphere at 37° C. (degrees Celsius).
(§2) Subsequently, the medium was switched to a commercially available medium for cell culture (D-MEM (1 g/L glucose), manufactured by Wako Pure Chemical Industries, Ltd.) supplemented with 0.5% bovine fetal serum (herein below, referred to as “low-serum medium”) and cultured for approximately one day in a 5% CO2 and saturated water vapor atmosphere at 37° C. (degrees Celsius). D-aspartic acid (manufactured by Wako Pure Chemical Industries, Ltd., 018-04821) was added to the low-serum medium to have the concentration of 0.01 μM (micro-molar), 0.1 μM (micro-molar), […] μM (micro-molar), or 320 μM (micro-molar). As a positive control, magnesium L-ascorbyl phosphate (L-Ascorbic Acid Phosphate Magnesium Salt n-Hydrate, herein below, referred to as “APM”, manufactured by Wako Pure Chemical Industries, Ltd., 013-19641) was added to the low-serum medium to have the concentration of 150 μM (micro-molar), 250 μM (micro-molar), or 500 μM (micro-molar). Further, the low-serum medium described above to which neither APM nor D-aspartic acid had been added was employed as a negative control.
The cell culture and addition of amino acids were carried out in the same manner as the Example 1. D-Aspartic acid (manufactured by Wako Pure Chemical Industries, Ltd., 018-04821) of 0.1 μM (micro-molar) and D-alanine (manufactured by Peptide Institute, Inc., 2801) of 0.1 μM (micro-molar) or 0.001 μM (micro-molar) were used as amino acids. Further, the low-serum medium described above to which neither D-aspartic acid nor D-alanine had been added was employed as a negative control. As a positive control, APM was added to the low-serum medium described above to have the concentration of 250 μM (micro-molar). In order to evaluate the production amount of type I collagen, type I procollagen and tropocollagen produced by human neonatal dermal fibroblasts were treated with pepsin (800 to 2500 unit/mg, P7000, manufactured by SIGMA), and the concentration of type I atelocollagen was measured by type I human collagen ELISA (EC1-E105, manufactured by AC Biotechnologies) according to the manufacturer's instruction.

[2] = tested on: human neonatal dermal fibroblasts; assay: Type I collagen production: PIP (C-terminal peptide of type I procollagen) in culture supernatant by EIA; assay type: cell-based; settings: for effect on promoting type I collagen production compared to the negative control (Bonferroni/Dunn test): under every concentration condition
Description: as §1, §2
After completing the cell culture for two days, the culture supernatant was collected and the concentration of C-terminal peptide of type I procollagen (herein below, referred to as “PIP”) produced by human neonatal dermal fibroblasts was measured by using Procollagen type I C-peptide EIA kit (manufactured by Takara Bio Inc.) according to the manufacturer's instruction.
The cell culture, addition of amino acids, and quantification of production amount of type I collagen were carried out in the same manner as the Example 1. As an amino acid, D-alanine (manufactured by Peptide Institute, Inc., 2801) was used at the concentrations of 0.01 μM (micro-molar), 0.1 μM (micro-molar), 10 μM (micro-molar), 1000 μM (micro-molar), and 17400 μM (micro-molar). Further, the low-serum medium described above to which neither APM nor D-alanine had been added was employed as a negative control.
The cell culture, addition of amino acids, and quantification of production amount of type I collagen were carried out in the same manner as the Example 1. D-Aspartic acid (manufactured by Wako Pure Chemical Industries, Ltd., 018-04821) of 0.1 μM (micro-molar) and L-aspartic acid (manufactured by Wako Pure Chemical Industries, Ltd., 013-04832) of 0.1 μM (micro-molar) were used as amino acids. Further, the low-serum medium described above to which neither L-aspartic acid nor D-aspartic acid had been added was employed as a negative control.
The cell culture, addition of amino acids, and quantification of production amount of type I collagen were carried out in the same manner as the Example 1. D-Alanine (manufactured by Peptide Institute, Inc., 2801) of 0.1 μM (micro-molar) or 150 μM (micro-molar) and L-alanine (manufactured by Peptide Institute, Inc., 2701) of 0.1 μM (micro-molar) or 150 μM (micro-molar) were used as amino acids. Further, the low-serum medium described above to which neither L-alanine nor D-alanine had been added was employed as a negative control.

[3] = Example 5 results (1), added at 0.1 μM, negative control 1.8 μg/mL
[4] = Example 4, added at 0.1 μM, negative control 361 ng/mL
[5] = Example 4, added at 150 μM, negative control 361 ng/mL
[6] = Example 3, added at 0.1 μM, negative control 361 ng/mL

Compound: C[C@@H](N)C(=O)O [D-alanine]
- promotion of type I collagen production compared to the negative control (Bonferroni/Dunn test) ([1]; Example 5 results (1)): promoted with statistical significance
- concentration of type I atelocollagen [1, 3]: 4.0 μg (microgram)/mL
- concentration of type I atelocollagen ([1]; Example 5 results (2), added at 0.001 μM, negative control 1.7 μg/mL): 2.1 μg (microgram)/mL
- PIP concentration ([2]; Example 2, added at 0.01 μM, negative control 551 ng/mL): 750 ng/mL
- PIP concentration ([2]; Example 2, added at 0.1 μM, negative control 551 ng/mL): 789 ng/mL
- PIP concentration ([2]; Example 2, added at 10 μM, negative control 551 ng/mL): 876 ng/mL
- PIP concentration ([2]; Example 2, added at 1000 μM, negative control 551 ng/mL): 823 ng/mL
- PIP concentration ([2]; Example 2, added at 17400 μM, negative control 551 ng/mL): 799 ng/mL
- effect on promoting type I collagen production compared to the negative control (Bonferroni/Dunn test) ([2]; Example 2): statistically significant effect
- promotion of type I collagen production compared to the negative control (Bonferroni/Dunn test) ([2]; Example 4, 0.1 μM or 150 μM): promoted with statistical significance
- PIP concentration [2, 4]: 502 ng/mL
- PIP concentration [2, 5]: 450 ng/mL

Compound: C[C@H](N)C(=O)O [L-alanine, reference compound]
- PIP concentration [2, 4]: 405 ng/mL
- PIP concentration [2, 5]: 413 ng/mL

Compound: N[C@@H](CC(=O)O)C(=O)O [L-aspartic acid, reference compound]
- PIP concentration [2, 6]: 406 ng/mL

Compound: magnesium L-ascorbyl phosphate [APM, reference compound]
- concentration of type I atelocollagen ([1]; Example 5 results (1), added at 250 μM, negative control 1.8 μg/mL): 3.9 μg (microgram)/mL
- concentration of type I atelocollagen ([1]; Example 5 results (2), added at 250 μM, negative control 1.7 μg/mL): 2.6 μg (microgram)/mL
- PIP concentration ([2]; Example 1, added at 150 μM, two days culture, low-serum medium, negative control 583 ng/mL): 1183 ng/mL
- PIP concentration ([2]; Example 1, added at 250 μM, negative control 583 ng/mL): 1666 ng/mL
- PIP concentration ([2]; Example 1, added at 500 μM, negative control 583 ng/mL): 1416 ng/mL
- effect on promoting type I collagen production compared to the negative control (Bonferroni/Dunn test) ([2]; Example 1): statistically significant effect
- PIP concentration ([2]; Example 2, added at 150 μM, negative control 551 ng/mL): 1183 ng/mL
- PIP concentration ([2]; Example 2, added at 250 μM, negative control 551 ng/mL): 1666 ng/mL
- PIP concentration ([2]; Example 2, added at 500 μM, negative control 551 ng/mL): 1416 ng/mL
- effect on promoting type I collagen production compared to the negative control (Bonferroni/Dunn test) ([2]; Example 2): statistically significant effect

Compound: N[C@H](CC(=O)O)C(=O)O [D-aspartic acid]
- promotion of type I collagen production compared to the negative control (Bonferroni/Dunn test) ([1]; Example 5 results (1)): promoted with statistical significance
- concentration of type I atelocollagen [1, 3]: 3.8 μg (microgram)/mL
- effect on promoting type I collagen production in comparison with APM ([2]; Example 1, 0.01 μM to 100 μM similar to APM at 150 μM): prominently more potent effect on promoting type I collagen production than APM
- PIP concentration ([2]; Example 1, added at 0.01 μM, negative control 583 ng/mL): 1286 ng/mL
- PIP concentration ([2]; Example 1, added at 0.1 μM, negative control 583 ng/mL): 1159 ng/mL
- PIP concentration ([2]; Example 1, added at 10 μM, negative control 583 ng/mL): 1117 ng/mL
- PIP concentration ([2]; Example 1, added at 100 μM, negative control 583 ng/mL): 1119 ng/mL
- PIP concentration ([2]; Example 1, added at 320 μM, negative control 583 ng/mL): 1007 ng/mL
- effect on promoting type I collagen production compared to the negative control (Bonferroni/Dunn test) ([2]; Example 1): statistically significant effect
- promotion of type I collagen production compared to the negative control (Bonferroni/Dunn test) ([2]; Example 3, 0.1 μM): promoted with statistical significance
- PIP concentration [2, 6]: 456 ng/mL

— US8637572B2, “Composition for promoting collagen production” (Shiseido Company, Ltd., priority 2009, dated 2014)
